From patent US9127040B2, “Regulation of sodium channels by PLUNC proteins” (The University of North Carolina at Chapel Hill, priority 2011, dated 2015)
Ends that are not written are not given here.

Legend:
Assay in all cases: Whole-cell patch-clamp currents in CHO cells stably expressing ASIC
Assay type in all cases: cell-based
Conditions in all cases: 10 μM S18
human ASIC1a = target: T1, human ASIC1a (Homo sapiens, UniProt P78348)
T1 construct: expressed in transfected cells
Protocol: (§1) Previously described cell lines expressing human ASIC1a, human ASIC2a and rat ASIC3 were used in these experiments (Poirot, J. Biol. Chem. 279: 38448 (2004))). Electrophysiological measurements were carried out with an EPC10 patch-clamp amplifier (HEKA Electronics, Lambrecht, Germany) as previously described (Blanchard et al., Pflugers Arch. 461:123 (2011)).
(§2) Whole-cell currents were measured from CHO cells stably expressing acid-sensing ion channel (ASIC) subunits, voltage clamped to −60 mV. Stimulations lasted 5 s and were performed every 45 s. Cells were stimulated three times with pH 6.6 (ASIC1a and -3) or pH 4 (ASIC2a). Between stimulations, cells were returned to a pH 7.4 conditioning solution for […] recovery from inactivation. The conditioning solution was then switched to a pH 7.4 solution containing 10 μM S18. Three stimulations in the presence of 10 μM S18 were performed before washing off the peptide. Current amplitudes of the above described experiments were normalized to the first control value and plotted as a function of time (FIG. 28B). S18 was added at T=0 s. ASIC1a=▪, ASIC2a=●, ASIC3=▴, all n=3. Cells were incubated for 40 s in a pH 7.1 (ASIC1a and -3) or 5.6 (ASIC2a) conditioning solution, then activated using an acidic stimulus (pH 5 for ASIC1a and -3, and pH 4 for ASIC2a) (FIG. 28C). Experiments were performed with or without 10 μM S18 in the conditioning solution. Current amplitudes measured during the acidic stimulus were normalized to the control amplitude obtained with a pH 7.4 conditioning solution. Open bars=control, closed bars=S18, all n=3-4. […] Stimulations were performed every 45 s. The protocol was performed with or without 10 μM S18 in all solutions. The average current is plotted as a function of time. […] Control=∘, S18=▪, all n=3-5.

rat ASIC3 = target: T2, rat ASIC3 (Rattus norvegicus, UniProt O35240)
T2 construct: expressed in transfected cells
Protocol: as §1, §2

human ASIC2a = target: T3, human ASIC2a (Homo sapiens, UniProt Q16515)
T3 construct: expressed in transfected cells
Protocol: as §1, §2

T2 sequence (O35240 whole entry): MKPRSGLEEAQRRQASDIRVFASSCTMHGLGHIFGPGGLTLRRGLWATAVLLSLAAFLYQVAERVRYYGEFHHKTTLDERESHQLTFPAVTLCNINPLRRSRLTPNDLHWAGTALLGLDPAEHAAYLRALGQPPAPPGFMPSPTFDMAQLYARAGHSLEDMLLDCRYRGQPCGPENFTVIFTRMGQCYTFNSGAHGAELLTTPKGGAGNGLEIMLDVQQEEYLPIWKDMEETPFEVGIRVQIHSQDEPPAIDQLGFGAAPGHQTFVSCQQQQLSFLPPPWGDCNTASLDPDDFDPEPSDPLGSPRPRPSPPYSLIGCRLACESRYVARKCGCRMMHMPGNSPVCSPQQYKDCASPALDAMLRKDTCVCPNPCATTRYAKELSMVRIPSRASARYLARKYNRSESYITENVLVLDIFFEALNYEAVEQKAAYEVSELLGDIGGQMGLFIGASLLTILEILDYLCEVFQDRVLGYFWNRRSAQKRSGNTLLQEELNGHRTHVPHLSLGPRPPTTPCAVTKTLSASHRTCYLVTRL
T3 sequence (Q16515 whole entry): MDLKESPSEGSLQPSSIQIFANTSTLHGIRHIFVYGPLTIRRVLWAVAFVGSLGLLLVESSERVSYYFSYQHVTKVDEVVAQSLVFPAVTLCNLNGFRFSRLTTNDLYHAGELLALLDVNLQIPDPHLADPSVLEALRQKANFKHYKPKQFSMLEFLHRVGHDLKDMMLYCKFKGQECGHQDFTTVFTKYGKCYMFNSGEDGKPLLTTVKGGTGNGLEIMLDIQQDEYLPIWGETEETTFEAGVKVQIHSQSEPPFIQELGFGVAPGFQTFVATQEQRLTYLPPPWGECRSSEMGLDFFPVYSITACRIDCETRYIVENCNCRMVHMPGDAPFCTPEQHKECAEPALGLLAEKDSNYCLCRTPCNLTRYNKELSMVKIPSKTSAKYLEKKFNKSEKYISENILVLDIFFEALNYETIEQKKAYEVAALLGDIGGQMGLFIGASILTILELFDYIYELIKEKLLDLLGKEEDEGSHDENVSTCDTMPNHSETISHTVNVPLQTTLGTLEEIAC
T1 sequence (P78348 whole entry): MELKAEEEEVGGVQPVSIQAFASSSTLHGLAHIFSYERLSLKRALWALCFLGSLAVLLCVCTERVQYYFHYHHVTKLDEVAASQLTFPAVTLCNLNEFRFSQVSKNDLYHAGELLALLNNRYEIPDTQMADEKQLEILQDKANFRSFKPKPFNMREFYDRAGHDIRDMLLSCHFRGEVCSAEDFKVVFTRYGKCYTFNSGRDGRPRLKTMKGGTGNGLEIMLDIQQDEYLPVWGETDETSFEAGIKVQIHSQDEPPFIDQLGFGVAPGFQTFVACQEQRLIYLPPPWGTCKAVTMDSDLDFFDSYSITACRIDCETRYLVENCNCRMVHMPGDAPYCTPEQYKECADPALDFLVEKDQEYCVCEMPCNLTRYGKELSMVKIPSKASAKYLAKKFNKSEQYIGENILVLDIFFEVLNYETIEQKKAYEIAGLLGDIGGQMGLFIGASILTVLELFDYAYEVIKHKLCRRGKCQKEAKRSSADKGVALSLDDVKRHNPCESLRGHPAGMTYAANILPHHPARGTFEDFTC

GGLPVPLDQTLPLNVNPA [S18]
does not Affect the Function: function of ASIC1a channels (human ASIC1a) | function of ASIC3 channels (rat ASIC3) | function of ASIC2a channels (human ASIC2a)
